Reference: PubChem BioAssay AID248 (DTP/NCI, 2004)
Values joined by “and” are separate entries in the source; they are usually repeats but may differ in a detail not shown here. Equal entries are not always repeated. Toxic doses and inconclusive results are not listed.

Tested on: L1210 leukemia ip in BDF1 mice, survival T/C
Test: NCI In Vivo Anticancer Drug Screen. Data for tumor model L1210 Leukemia (intraperitoneal) in B6D2F1 (BDF1) mice
Conditions: endpoint: mean survival time, higher = longer survival
Outline: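 Transplantable tumor model; survival measured in treated vs vehicle control mice. Value = treated/control.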

SMILES: O=C(Nc1ccc(NC2=NCCN2)cc1)c1ccc(C(=O)Nc2ccc(NC3=NCCN3)cc2)cc1
- T/C (dose: 0.25 mg/kg/injection, schedule: Q01DX001 (ip), vehicle: saline): 109 % of control
- T/C (dose: 0.3 mg/kg/injection, schedule: Q#A X Z (ip), vehicle: saline): 116 % of control
- T/C (dose: 0.45 mg/kg/injection, schedule: Q#A X Z (ip), vehicle: saline): 122 % of control
- T/C (dose: 0.5 mg/kg/injection, schedule: Q01DX001 (ip), vehicle: saline): 110 % of control
- T/C (dose: 0.5 mg/kg/injection, schedule: Q07DX Z (ip), vehicle: saline): 97 % of control
- T/C (dose: 0.63 mg/kg/injection, schedule: Q02DX004 (im), vehicle: saline): 104 % of control
- T/C (dose: 0.9 mg/kg/injection, schedule: Q01DX Z (ip), vehicle: methylcellulose (MC)): 104 % of control
- T/C (dose: 0.94 mg/kg/injection, schedule: Q01DX Z (ip), vehicle: saline): 103 % of control
- T/C (dose: 1.0 mg/kg/injection, schedule: Q01DX001 (ip), vehicle: saline): 109 % of control
- T/C (dose: 1.0 mg/kg/injection, schedule: Q07DX Z (ip), vehicle: saline): 106 % of control
- T/C (dose: 1.0 mg/kg/injection, schedule: Q#A X Z (ip), vehicle: saline): 180 % of control
- T/C (dose: 1.25 mg/kg/injection, schedule: Q01DX Z (ip), vehicle: methylcellulose (MC)): 109 % of control
- T/C (dose: 1.25 mg/kg/injection, schedule: Q02DX004 (im), vehicle: saline): 101 % of control
- T/C (dose: 1.3 mg/kg/injection, schedule: Q01DX Z (ip), vehicle: saline): 120 % of control
- T/C (dose: 1.3 mg/kg/injection, schedule: Q01DX Z (sc), vehicle: saline): 93 % of control
- T/C (dose: 1.5 mg/kg/injection, schedule: Q#A X Z (ip), vehicle: saline): 191 % of control
- T/C (dose: 1.8 mg/kg/injection, schedule: Q01DX Z (ip), vehicle: methylcellulose (MC)): 116 % of control
- T/C (dose: 1.88 mg/kg/injection, schedule: Q01DX Z (ip), vehicle: saline): 200 % of control
- T/C (dose: 2.0 mg/kg/injection, schedule: Q01DX001 (ip), vehicle: saline): 113 % of control
- T/C (dose: 2.0 mg/kg/injection, schedule: Q01DX Z (ip), vehicle: saline): 177 % of control
- T/C (dose: 2.0 mg/kg/injection, schedule: Q01DX Z (sc), vehicle: saline): 101 % of control
- T/C (dose: 2.0 mg/kg/injection, schedule: Q07DX Z (ip), vehicle: saline): 103 % of control
- T/C (dose: 2.5 mg/kg/injection, schedule: Q01DX Z (ip), vehicle: methylcellulose (MC)): 150 % of control
- T/C (dose: 2.5 mg/kg/injection, schedule: Q02DX004 (im), vehicle: saline): 108 % of control
- T/C (dose: 3.0 mg/kg/injection, schedule: Q01DX Z (ip), vehicle: saline): 239 % of control
- T/C (dose: 3.0 mg/kg/injection, schedule: Q01DX Z (sc), vehicle: saline): 113 % of control
- T/C (dose: 3.75 mg/kg/injection, schedule: Q01DX Z (ip), vehicle: saline): 264 % of control
- T/C (dose: 4.0 mg/kg/injection, schedule: Q01DX001 (ip), vehicle: saline): 121 % of control
- T/C (dose: 4.0 mg/kg/injection, schedule: Q03DX Z (ip), vehicle: saline): 121 % of control
- T/C (dose: 5.0 mg/kg/injection, schedule: Q01DX Z (ip), vehicle: methylcellulose (MC)): 293 % of control
- T/C (dose: 5.0 mg/kg/injection, schedule: Q02DX004 (im), vehicle: saline): 106 % of control
- T/C (dose: 6.0 mg/kg/injection, schedule: Q03DX Z (ip), vehicle: saline): 161 % of control
- T/C (dose: 6.0 mg/kg/injection, schedule: Q07DX Z (ip), vehicle: saline): 198 % of control
- T/C (dose: 7.5 mg/kg/injection, schedule: Q01DX Z (ip), vehicle: methylcellulose (MC)): 268 % of control
- T/C (dose: 7.5 mg/kg/injection, schedule: Q01DX Z (ip), vehicle: saline): 265 % of control
- T/C (dose: 8.0 mg/kg/injection, schedule: Q#A X Z (ip), vehicle: saline): 110 % of control
- T/C (dose: 9.0 mg/kg/injection, schedule: Q07DX Z (ip), vehicle: saline): 154 % of control and 193 % of control
- T/C (dose: 10.0 mg/kg/injection, schedule: Q01DX001 (im), vehicle: steriod suspending solution): 103 % of control
- T/C (dose: 10.0 mg/kg/injection, schedule: Q01DX010 (sc), vehicle: olive oil, sesame oil, peanut oil): 101 % of control and 118 % of control
- T/C (dose: 10.0 mg/kg/injection, schedule: Q01DX Z (ip), vehicle: methylcellulose (MC)): 200 % of control
- T/C (dose: 10.0 mg/kg/injection, schedule: Q02DX004 (im), vehicle: olive oil, sesame oil, peanut oil): 153 % of control
- T/C (dose: 12.0 mg/kg/injection, schedule: Q#A X Z (ip), vehicle: saline): 112 % of control
- T/C (dose: 14.0 mg/kg/injection, schedule: Q07DX Z (ip), vehicle: saline): 152 % of control
- T/C (dose: 15.0 mg/kg/injection, schedule: Q01DX Z (ip), vehicle: methylcellulose (MC)): 184 % of control
- T/C (dose: 15.0 mg/kg/injection, schedule: Q01DX Z (ip), vehicle: saline): 161 % of control
- T/C (dose: 16.0 mg/kg/injection, schedule: Q01DX001 (ip), vehicle: saline): 155 % of control
- T/C (dose: 16.0 mg/kg/injection, schedule: Q01DX Z (sc), vehicle: saline): 152 % of control
- T/C (dose: 18.0 mg/kg/injection, schedule: Q01DX001 (ip), vehicle: other): 172 % of control
- T/C (dose: 18.0 mg/kg/injection, schedule: Q#A X Z (ip), vehicle: saline): 109 % of control
- T/C (dose: 20.0 mg/kg/injection, schedule: Q01DX010 (sc), vehicle: olive oil, sesame oil, peanut oil): 87 % of control
- T/C (dose: 20.0 mg/kg/injection, schedule: Q02DX004 (im), vehicle: olive oil, sesame oil, peanut oil): 175 % of control and 196 % of control
- T/C (dose: 21.0 mg/kg/injection, schedule: Q07DX Z (ip), vehicle: saline): 184 % of control
- T/C (dose: 24.0 mg/kg/injection, schedule: Q01DX007 (iv), vehicle: saline): 174 % of control
- T/C (dose: 24.0 mg/kg/injection, schedule: Q01DX Z (ip), vehicle: saline): 120 % of control
- T/C (dose: 24.0 mg/kg/injection, schedule: Q01DX Z (sc), vehicle: saline): 113 % of control
- T/C (dose: 26.0 mg/kg/injection, schedule: Q01DX001 (ip), vehicle: carboxymethylcellulose (CMC)): 210 % of control
- T/C (dose: 26.0 mg/kg/injection, schedule: Q01DX001 (ip), vehicle: other): 154 % of control and 200 % of control
- T/C (dose: 30.0 mg/kg/injection, schedule: Q01DX Z (ip), vehicle: saline): 114 % of control
- T/C (dose: 36.0 mg/kg/injection, schedule: Q01DX007 (iv), vehicle: saline): 210 % of control
- T/C (dose: 36.0 mg/kg/injection, schedule: Q01DX Z (ip), vehicle: saline): 96 % of control
- T/C (dose: 40.0 mg/kg/injection, schedule: Q01DX001 (im), vehicle: steriod suspending solution): 176 % of control
- T/C (dose: 40.0 mg/kg/injection, schedule: Q01DX001 (ip), vehicle: carboxymethylcellulose (CMC)): 194 % of control and 206 % of control
- T/C (dose: 40.0 mg/kg/injection, schedule: Q01DX001 (ip), vehicle: other): 198 % of control and 201 % of control
- T/C (dose: 40.0 mg/kg/injection, schedule: Q02DX004 (im), vehicle: olive oil, sesame oil, peanut oil): 109 % of control and 110 % of control
- T/C (dose: 54.0 mg/kg/injection, schedule: Q01DX007 (iv), vehicle: saline): 233 % of control
- T/C (dose: 60.0 mg/kg/injection, schedule: Q01DX001 (ip), vehicle: carboxymethylcellulose (CMC)): 251 % of control and 296 % of control
- T/C (dose: 60.0 mg/kg/injection, schedule: Q01DX001 (ip), vehicle: other): 224 % of control and 297 % of control
- T/C (dose: 60.0 mg/kg/injection, schedule: Q01DX Z (ip), vehicle: saline): 103 % of control
- T/C (dose: 64.0 mg/kg/injection, schedule: Q01DX010 (oral), vehicle: saline): 108 % of control
- T/C (dose: 72.0 mg/kg/injection, schedule: Q01DX001 (ip), vehicle: saline): 215 % of control and 232 % of control and 264 % of control
- T/C (dose: 75.0 mg/kg/injection, schedule: Q01DX Z (oral), vehicle: saline): 95 % of control
- T/C (dose: 80.0 mg/kg/injection, schedule: Q01DX001 (im), vehicle: saline): 213 % of control
- T/C (dose: 80.0 mg/kg/injection, schedule: Q01DX001 (im), vehicle: steriod suspending solution): 211 % of control
- T/C (dose: 80.0 mg/kg/injection, schedule: Q02DX004 (im), vehicle: olive oil, sesame oil, peanut oil): 87 % of control
- T/C (dose: 81.0 mg/kg/injection, schedule: Q01DX007 (iv), vehicle: saline): 97 % of control
- T/C (dose: 81.0 mg/kg/injection, schedule: Q01DX Z (ip), vehicle: saline): 122 % of control
- T/C (dose: 90.0 mg/kg/injection, schedule: Q01DX001 (ip), vehicle: carboxymethylcellulose (CMC)): 244 % of control
- T/C (dose: 90.0 mg/kg/injection, schedule: Q01DX001 (ip), vehicle: other): 265 % of control
- T/C (dose: 96.0 mg/kg/injection, schedule: Q01DX010 (oral), vehicle: saline): 111 % of control
- T/C (dose: 144.0 mg/kg/injection, schedule: Q01DX010 (oral), vehicle: saline): 97 % of control and 119 % of control
- T/C (dose: 150.0 mg/kg/injection, schedule: Q01DX Z (oral), vehicle: saline): 101 % of control
- T/C (dose: 160.0 mg/kg/injection, schedule: Q01DX001 (im), vehicle: saline): 243 % of control
- T/C (dose: 320.0 mg/kg/injection, schedule: Q01DX001 (im), vehicle: saline): 271 % of control
- T/C (dose: 576.0 mg/kg/injection, schedule: Q01DX001 (ip), vehicle: saline): 110 % of control
- T/C (dose: 576.0 mg/kg/injection, schedule: Q01DX010 (oral), vehicle: saline): 116 % of control
- T/C (dose: 600.0 mg/kg/injection, schedule: Q01DX Z (oral), vehicle: saline): 122 % of control
